Test results reported in the NIST ThermoML archive (doi:10.1016/j.jct.2009.04.001).
± gives the expanded uncertainty stated by the source.

Legend:
[1] = for surface tension liquid-gas: Pendant drop shape; for mass density: Liquid, Vibrating tube method
[2] = xn = mol fraction of the nth substance listed; conditions: for surface tension liquid-gas: Pendant drop shape; for mass density: 101 kPa, Liquid, Vibrating tube method

## COCCOC [1,2-dimethoxyethane]
[1]; 298.15 K
  surface tension liquid-gas: 24.27 ± 0.28 mN/m
[1]; 298.15 K, 101.33 kPa
  mass density: 861.36 ± 0.18 kg/m3
[1]; 303.15 K
  surface tension liquid-gas: 23.73 ± 0.28 mN/m
[1]; 303.15 K, 101 kPa
  mass density: 856.8 ± 0.18 kg/m3
[1]; 303.15 K, 101.33 kPa
  mass density: 856.79 ± 0.18 kg/m3
[1]; 308.15 K
  surface tension liquid-gas: 23.16 ± 0.27 mN/m
[1]; 308.15 K, 101.33 kPa
  mass density: 851.24 ± 0.18 kg/m3

## COCCOC [1,2-dimethoxyethane] + Cc1ccc(C)cc1
[2]; 298.15 K, x1 = 0.1002
  surface tension liquid-gas: 27.63 ± 0.3 mN/m
  mass density: 857.45 ± 0.15 kg/m3
[2]; 298.15 K, x1 = 0.2004
  surface tension liquid-gas: 27.17 ± 0.3 mN/m
  mass density: 857.95 ± 0.16 kg/m3
[2]; 298.15 K, x1 = 0.2996
  surface tension liquid-gas: 26.75 ± 0.3 mN/m
  mass density: 858.44 ± 0.16 kg/m3
[2]; 298.15 K, x1 = 0.4001
  surface tension liquid-gas: 26.32 ± 0.29 mN/m
  mass density: 858.93 ± 0.16 kg/m3
[2]; 298.15 K, x1 = 0.5009
  surface tension liquid-gas: 25.91 ± 0.29 mN/m
  mass density: 859.41 ± 0.16 kg/m3
[2]; 298.15 K, x1 = 0.5997
  surface tension liquid-gas: 25.54 ± 0.29 mN/m
  mass density: 859.85 ± 0.16 kg/m3
[2]; 298.15 K, x1 = 0.7018
  surface tension liquid-gas: 25.18 ± 0.28 mN/m
  mass density: 860.28 ± 0.17 kg/m3
[2]; 298.15 K, x1 = 0.8005
  surface tension liquid-gas: 24.87 ± 0.28 mN/m
  mass density: 860.66 ± 0.17 kg/m3
[2]; 298.15 K, x1 = 0.8998
  surface tension liquid-gas: 24.57 ± 0.28 mN/m
  mass density: 861.02 ± 0.17 kg/m3
[2]; 298.15 K, x1 = 1
  surface tension liquid-gas: 24.27 ± 0.28 mN/m
  mass density: 861.36 ± 0.18 kg/m3
[2]; 303.15 K, x1 = 0.0999
  surface tension liquid-gas: 27.12 ± 0.3 mN/m
  mass density: 853.1 ± 0.15 kg/m3
[2]; 303.15 K, x1 = 0.2007
  surface tension liquid-gas: 26.67 ± 0.29 mN/m
  mass density: 853.58 ± 0.16 kg/m3
[2]; 303.15 K, x1 = 0.3002
  surface tension liquid-gas: 26.24 ± 0.29 mN/m
  mass density: 854.06 ± 0.16 kg/m3
[2]; 303.15 K, x1 = 0.3999
  surface tension liquid-gas: 25.82 ± 0.29 mN/m
  mass density: 854.52 ± 0.16 kg/m3
[2]; 303.15 K, x1 = 0.4999
  surface tension liquid-gas: 25.41 ± 0.29 mN/m
  mass density: 854.97 ± 0.16 kg/m3
[2]; 303.15 K, x1 = 0.6001
  surface tension liquid-gas: 25.03 ± 0.28 mN/m
  mass density: 855.4 ± 0.17 kg/m3
[2]; 303.15 K, x1 = 0.7011
  surface tension liquid-gas: 24.68 ± 0.28 mN/m
  mass density: 855.81 ± 0.17 kg/m3
[2]; 303.15 K, x1 = 0.8003
  surface tension liquid-gas: 24.37 ± 0.28 mN/m
  mass density: 856.19 ± 0.17 kg/m3
[2]; 303.15 K, x1 = 0.9003
  surface tension liquid-gas: 24.05 ± 0.28 mN/m
  mass density: 856.52 ± 0.17 kg/m3
[2]; 303.15 K, x1 = 1
  surface tension liquid-gas: 23.73 ± 0.28 mN/m
  mass density: 856.79 ± 0.18 kg/m3
[2]; 308.15 K, x1 = 0.0996
  surface tension liquid-gas: 26.61 ± 0.29 mN/m
  mass density: 848.66 ± 0.16 kg/m3
[2]; 308.15 K, x1 = 0.1998
  surface tension liquid-gas: 26.16 ± 0.29 mN/m
  mass density: 849.05 ± 0.16 kg/m3
[2]; 308.15 K, x1 = 0.2997
  surface tension liquid-gas: 25.73 ± 0.29 mN/m
  mass density: 849.41 ± 0.16 kg/m3
[2]; 308.15 K, x1 = 0.4001
  surface tension liquid-gas: 25.3 ± 0.28 mN/m
  mass density: 849.76 ± 0.16 kg/m3
[2]; 308.15 K, x1 = 0.4995
  surface tension liquid-gas: 24.89 ± 0.28 mN/m
  mass density: 850.09 ± 0.16 kg/m3
[2]; 308.15 K, x1 = 0.6004
  surface tension liquid-gas: 24.51 ± 0.28 mN/m
  mass density: 850.4 ± 0.17 kg/m3
[2]; 308.15 K, x1 = 0.6993
  surface tension liquid-gas: 24.17 ± 0.28 mN/m
  mass density: 850.67 ± 0.17 kg/m3
[2]; 308.15 K, x1 = 0.7993
  surface tension liquid-gas: 23.84 ± 0.27 mN/m
  mass density: 850.93 ± 0.17 kg/m3
[2]; 308.15 K, x1 = 0.8998
  surface tension liquid-gas: 23.5 ± 0.27 mN/m
  mass density: 851.14 ± 0.17 kg/m3
[2]; 308.15 K, x1 = 1
  surface tension liquid-gas: 23.16 ± 0.27 mN/m
  mass density: 851.24 ± 0.18 kg/m3

## COCCOC [1,2-dimethoxyethane] + Cc1ccccc1C
[2]; 298.15 K, x1 = 0.0995
  surface tension liquid-gas: 29.05 ± 0.31 mN/m
  mass density: 874.01 ± 0.14 kg/m3
[2]; 298.15 K, x1 = 0.1998
  surface tension liquid-gas: 28.28 ± 0.3 mN/m
  mass density: 872.89 ± 0.14 kg/m3
[2]; 298.15 K, x1 = 0.3003
  surface tension liquid-gas: 27.6 ± 0.3 mN/m
  mass density: 871.73 ± 0.15 kg/m3
[2]; 298.15 K, x1 = 0.4004
  surface tension liquid-gas: 27.08 ± 0.3 mN/m
  mass density: 870.51 ± 0.15 kg/m3
[2]; 298.15 K, x1 = 0.4998
  surface tension liquid-gas: 26.63 ± 0.29 mN/m
  mass density: 869.24 ± 0.15 kg/m3
[2]; 298.15 K, x1 = 0.6001
  surface tension liquid-gas: 26.2 ± 0.3 mN/m
  mass density: 867.86 ± 0.16 kg/m3
[2]; 298.15 K, x1 = 0.7008
  surface tension liquid-gas: 25.78 ± 0.29 mN/m
  mass density: 866.37 ± 0.16 kg/m3
[2]; 298.15 K, x1 = 0.7996
  surface tension liquid-gas: 25.37 ± 0.29 mN/m
  mass density: 864.86 ± 0.17 kg/m3
[2]; 298.15 K, x1 = 0.8992
  surface tension liquid-gas: 24.96 ± 0.28 mN/m
  mass density: 863.22 ± 0.17 kg/m3
[2]; 298.15 K, x1 = 0.95
  surface tension liquid-gas: 24.64 ± 0.28 mN/m
  mass density: 862.34 ± 0.17 kg/m3
[2]; 298.15 K, x1 = 1
  surface tension liquid-gas: 24.27 ± 0.28 mN/m
  mass density: 861.36 ± 0.18 kg/m3
[2]; 303.15 K, x1 = 0.0996
  surface tension liquid-gas: 28.45 ± 0.3 mN/m
  mass density: 869.77 ± 0.14 kg/m3
[2]; 303.15 K, x1 = 0.1997
  surface tension liquid-gas: 27.73 ± 0.3 mN/m
  mass density: 868.64 ± 0.15 kg/m3
[2]; 303.15 K, x1 = 0.3007
  surface tension liquid-gas: 27.08 ± 0.3 mN/m
  mass density: 867.45 ± 0.15 kg/m3
[2]; 303.15 K, x1 = 0.3997
  surface tension liquid-gas: 26.61 ± 0.29 mN/m
  mass density: 866.2 ± 0.15 kg/m3
[2]; 303.15 K, x1 = 0.5001
  surface tension liquid-gas: 26.19 ± 0.29 mN/m
  mass density: 864.88 ± 0.16 kg/m3
[2]; 303.15 K, x1 = 0.6012
  surface tension liquid-gas: 25.78 ± 0.29 mN/m
  mass density: 863.46 ± 0.16 kg/m3
[2]; 303.15 K, x1 = 0.7009
  surface tension liquid-gas: 25.37 ± 0.29 mN/m
  mass density: 861.98 ± 0.16 kg/m3
[2]; 303.15 K, x1 = 0.7988
  surface tension liquid-gas: 25 ± 0.28 mN/m
  mass density: 860.43 ± 0.17 kg/m3
[2]; 303.15 K, x1 = 0.8998
  surface tension liquid-gas: 24.53 ± 0.28 mN/m
  mass density: 858.74 ± 0.17 kg/m3
[2]; 303.15 K, x1 = 0.9498
  surface tension liquid-gas: 24.17 ± 0.28 mN/m
  mass density: 857.85 ± 0.17 kg/m3
[2]; 303.15 K, x1 = 1
  surface tension liquid-gas: 23.73 ± 0.28 mN/m
  mass density: 856.8 ± 0.18 kg/m3
[2]; 308.15 K, x1 = 0.0998
  surface tension liquid-gas: 27.92 ± 0.3 mN/m
  mass density: 865.45 ± 0.14 kg/m3
[2]; 308.15 K, x1 = 0.2005
  surface tension liquid-gas: 27.23 ± 0.3 mN/m
  mass density: 864.2 ± 0.15 kg/m3
[2]; 308.15 K, x1 = 0.3003
  surface tension liquid-gas: 26.61 ± 0.29 mN/m
  mass density: 862.9 ± 0.15 kg/m3
[2]; 308.15 K, x1 = 0.4009
  surface tension liquid-gas: 26.17 ± 0.29 mN/m
  mass density: 861.51 ± 0.15 kg/m3
[2]; 308.15 K, x1 = 0.4991
  surface tension liquid-gas: 25.77 ± 0.29 mN/m
  mass density: 860.07 ± 0.16 kg/m3
[2]; 308.15 K, x1 = 0.5995
  surface tension liquid-gas: 25.39 ± 0.28 mN/m
  mass density: 858.53 ± 0.16 kg/m3
[2]; 308.15 K, x1 = 0.7013
  surface tension liquid-gas: 24.99 ± 0.28 mN/m
  mass density: 856.88 ± 0.16 kg/m3
[2]; 308.15 K, x1 = 0.7991
  surface tension liquid-gas: 24.58 ± 0.28 mN/m
  mass density: 855.2 ± 0.17 kg/m3
[2]; 308.15 K, x1 = 0.9008
  surface tension liquid-gas: 24.07 ± 0.28 mN/m
  mass density: 853.35 ± 0.17 kg/m3
[2]; 308.15 K, x1 = 0.9503
  surface tension liquid-gas: 23.66 ± 0.27 mN/m
  mass density: 852.39 ± 0.18 kg/m3
[2]; 308.15 K, x1 = 1
  surface tension liquid-gas: 23.16 ± 0.27 mN/m
  mass density: 851.24 ± 0.18 kg/m3

## Cc1ccccc1C [1,2-dimethylbenzene]
[1]; 298.15 K
  surface tension liquid-gas: 29.86 ± 0.32 mN/m
[1]; 298.15 K, 101.33 kPa
  mass density: 875.09 ± 0.14 kg/m3
[1]; 303.15 K
  surface tension liquid-gas: 29.18 ± 0.31 mN/m
[1]; 303.15 K, 101.33 kPa
  mass density: 870.86 ± 0.14 kg/m3
[1]; 308.15 K
  surface tension liquid-gas: 28.61 ± 0.31 mN/m
[1]; 308.15 K, 101.33 kPa
  mass density: 866.64 ± 0.14 kg/m3

## Cc1ccccc1C [1,2-dimethylbenzene] + COCCOC
[2]; 298.15 K, x2 = 0
  surface tension liquid-gas: 29.86 ± 0.32 mN/m
  mass density: 875.09 ± 0.14 kg/m3
[2]; 303.15 K, x2 = 0
  surface tension liquid-gas: 29.18 ± 0.31 mN/m
  mass density: 870.86 ± 0.14 kg/m3
[2]; 308.15 K, x2 = 0
  surface tension liquid-gas: 28.61 ± 0.31 mN/m
  mass density: 866.64 ± 0.14 kg/m3

## Cc1ccc(C)cc1 [1,4-dimethylbenzene]
[1]; 298.15 K
  surface tension liquid-gas: 28.11 ± 0.3 mN/m
[1]; 298.15 K, 101.33 kPa
  mass density: 856.95 ± 0.15 kg/m3
[1]; 303.15 K
  surface tension liquid-gas: 27.59 ± 0.3 mN/m
[1]; 303.15 K, 101.33 kPa
  mass density: 852.61 ± 0.15 kg/m3
[1]; 308.15 K
  surface tension liquid-gas: 27.07 ± 0.3 mN/m
[1]; 308.15 K, 101.33 kPa
  mass density: 848.27 ± 0.15 kg/m3

## Cc1ccc(C)cc1 [1,4-dimethylbenzene] + COCCOC
[2]; 298.15 K, x2 = 0
  surface tension liquid-gas: 28.11 ± 0.3 mN/m
  mass density: 856.95 ± 0.15 kg/m3
[2]; 303.15 K, x2 = 0
  surface tension liquid-gas: 27.59 ± 0.3 mN/m
  mass density: 852.61 ± 0.15 kg/m3
[2]; 308.15 K, x2 = 0
  surface tension liquid-gas: 27.07 ± 0.3 mN/m
  mass density: 848.27 ± 0.15 kg/m3
